Test results reported in patent US11987835B2, “Amino acid-sensing diguanylate cyclase and methods of use” (priority 2019, dated 2024).

Key:
[1] = system: Aer01 SpdE tandem PAS/dCache region (residues 37-287); assay: Thermofluor (thermal shift) assay, Aer01 SpdE; assay type: binding, Aeromonas veronii; conditions: 10 mM pure amino acid; for thermal shift (ΔTm) in words: replicate ΔTm data
Experimental: (§1) Thermofluor Assay. The periplasmic portion of SpdE was cloned, expressed and purified in E. coli. Thermofluor assays were performed using a Thermo Fisher Scientific StepOnePlus Real-time PCR instrument. Each 20 μL sample contained 0.1 mg/mL SpdE protein, 4× SYPRO Orange dye, 165 mM NaCl, 80 mM Tris pH 7.5 and 10 mM ligand (free amino acid dissolved in water). All samples were done in triplicate and repeated 2-3 times on different days. All reagents and steps were performed at 4° C. and placed in 96 well PCR plates. The PCR plate was slowly heated (˜0.03° C./sec) from 4° C. to 80° C. in the StepOnePlus instrument and fluorescent measurements were taken every 8.5 sec. The resultant thermal shift curves were analyzed to find the inflexion points, which correspond to the melting temperature (Tm) of the protein (with or without ligand). Inflexion points were determined in Microsoft Excel by calculating the half way point between the minimum fluorescence value prior to fluorescence increase and the maximum fluorescence value. The Tm difference between protein with and without ligand was calculated and plotted to determine the thermal stability shift as a proxy for ligand binding.
In order to identify SpdE ligands, a thermal shift assay was conducted using 96-well Biolog Phenotype MicroArray plates as a high-throughput approach to screen compounds for ligand candidates. Using heterologously expressed and purified tandem PAS/dCache region of the protein (residues 37-287), ˜200 compounds were screened for ones that conferred a significant shift in protein thermal stability (see Table 4). […] For each curve, the melting temperature (Tm) was determined (brown circles), which corresponds to the midpoint of protein unfolding. The ΔTm (difference between test Tm and water control Tm) was calculated for each amino acid condition.

[2] = system: SpdE diguanylate cyclase activity in Aer01; assay: Intracellular cyclic di-GMP quantification; assay type: cell-based, Aeromonas veronii; conditions: WT Aer01, 1 mM amino acid, ~4 hrs, versus no ligand
Experimental: Intracellular cyclic di-GMP quantification. […] Cultures were incubated, shaking, at 30° C. for 4 hours. Sample OD600 was measured and the entire volume pelleted. Sample pellets were resuspended in 300 μL ice cold extraction buffer (40/40/20 acetonitrile/methanol/water+0.1 N formic acid), iced for 30 min, then pelleted at maximum speed in tabletop microcentrifuge for 10 min. The supernatant was transferred to a new tube and stored at −80° until being vacuum concentrated until completely evaporated.
Dried samples were resuspended in 100 μL Ultra Performance liquid chromatography-grade water and centrifuged for two minutes at 18,000×g (Eppendorf® Centrifuge 5242R). The debris-free supernatants were moved to LCMS Certified Clear Glass 12×32 mm screw neck max recovery vials (Waters®). Ten microliters of each sample were analyzed using LC-MS/MS on a Quattro Premier XE mass spectrometer coupled with an Acquity Ultra Performance LC system (Waters®). Cyclic di-GMP was detected with electrospray ionization using multiple reaction monitoring in negative-ion mode at m/z 689.16→344.31. […]
In the case of SpdE, ligand binding to the PAS/Cache was hypothesized to regulate SpdE diguanylate cyclase activity, thereby altering intracellular levels of c-di-GMP. To test this, WT and ΔspdE Aer01 were incubated in the presence or absence of amino acid ligands for ˜4 hrs, then pelleted and lysed the cells to extract and quantify intracellular c-di-GMP.

[3] = system: Aer01; assay type: cell-based, Aeromonas veronii
Experimental: Exploration Assay. Overnight cultures (TSB) of Aer01 Strains were pelleted (1 mL), and resuspended in 1 ml sterile EM. […] The cultures were incubated, shaking, at 30° C. for 3 hours. An aliquot of each culture was passed through a 0.2 μM filter (Corning® Costar® Spin-X® centrifuge tube filters) to generate cell-free supernatant. To a sterile 96-well plate round-bottom plate, 80 μL of unfiltered culture was added to each well to include five replicates for each condition. To another sterile 96-well plate round-bottom plate, 80 μL of the cell-free supernatant was added to each well to replicate the layout of the culture plate. Using a Rainin Liquidator™ 96-channel benchtop pipettor, 5 μL of the cell-free supernatant was pulled up into 20 μL Rainin pipette tips. These tips then were lowered down into the wells of the culture plate so the tips were submerged to half the depth of the culture volume in the wells. This set-up was incubated at room temperature for 30 min, during which time the cells in the culture can swim up into the supernatant in the pipette tips. After incubation, the contents of the tips were ejected into the wells of a sterile 96-well plate (Corning, flat-bottom, #3595) to which 195 μL of sterile TSB medium was added to each well. This plate was immediately placed in a FLUOstar Omega microplate reader (BMG Labtech, Offenburg, Germany) and growth curves monitored by measuring absorbance (600 nm) every 10 min for 12-16 hrs, with 30° C. incubation and constant shaking. The growth curves were plotted and the times at which the absorbance passed 0.5 was determined for each plot. The time difference between a particular condition and a reference condition (as indicated in FIG. 5C) represents the “exploration response” of Aer01 in that condition.
An “exploration assay” was used to measure population-level motility. For this assay Aer01 was incubated in the presence/absence of amino acid ligand (1 mM) for˜4 hrs, then the culture was added to the wells of a 96-well plate and pipette tips filled with the cell-free supernatant of the same cultures was lowered into the wells (FIG. 13). During a 30 min incubation period the Aer01 cells in the wells swam up into the pipette tips. […] To quantify the number of cells in the pipette tips after the 30 min exploration time, the contents of the pipette tips were ejected into the wells of a 96-well plate containing rich media and growth curves were monitored. […] This time difference between conditions, “exploration response,” was calculated to compare across many strains and conditions (FIG. 12C).

[4] = system: Aer01; assay type: cell-based, Aeromonas veronii; remark: listed apart in the source
Experimental: Live imaging and quantification of Aer01 motility. […] EM containing proline or valine (pH adjusted to 7.8 with HCl/NaOH) was added to the wells to generate the desired final concentrations of amino acid (0, 1 nM, 10 nM, 100 nM, 1 μM, or 1 mM) and cell densities of OD 0.1, each performed in triplicate. The tray was covered by parafilm and incubated at 30° C. for 5 hours. Cells were imaged between hour 5-6. Prior to imaging, bacterial samples were moved to a temperature-controlled box housing the microscope, heated to 30° C. 2 ul of bacteria from treatments were applied to a well slide (MP Biomedicals 10-well multitest slides #096041805), covered with a coverslip, and imaged immediately. Videos of bacteria were captured using a Nikon Eclipse Ti inverted microscope on the GFP channel using 20× magnification at 39 frames per second. Videos of treated bacteria were analyzed with particle tracking software (Parthasarathy, Nature Methods 9:724-236, 2012) using these settings: “objects” were identified using bpfilter 3, nsize 7, and gradobjsize 0. A standard threshold of 3.99-6 was applied, depending on the degree of background. Motile bacteria were defined as objects tracked over at least 1 s (39 frames) with a standard deviation in position of pixels/frame of at least 1.
To do this, Aer01 was incubated in medium+/−ligand (ranging between 0 and 1 mM) then wet-mounted and imaged on an inverted microscope.

[5] = system: Aer01; assay type: cell-based, Aeromonas veronii; remark: listed apart in the source
Experimental: For light-sheet microscope-based imaging and determination of cellular swim speeds, overnight cultures (TSB) of strains (dTomato-tagged Aer01 and dTomato-tagged ΔspdE) were washed twice with sterile EM, as above. […] FC-EM was generated by collecting the flask EM of GF 5 or 6 dpf zebrafish larvae, filter-sterilizing and storing at 4° C. A glass cuvette was filled with culture and imaged on a custom-built light sheet fluorescence microscope, as previously described (Taormina et al., Biol. Bull. 223:7-20, 2012). The light sheet optically sections bulk samples in the center of the cuvette, so as not to constrain the motility of the imaged bacteria by surfaces. Movies in a single optical plane were captured for a duration of 20 seconds (frame rate of 30 frames/sec) with excitation light provided by a 561 nm solid state laser (Coherent Sapphire 20 mW; all strains expressed dTomato fluorescent protein). […] As above, particle tracking software, which uses a radial-symmetry-based algorithm, was used to analyze images (Parthasarathy, Nature Methods 9:724-726, 2012). The following parameters were used: bpfiltsize=7, nsize=7, gradobjsize=7, 1/nhood=true. […]
Therefore, the cells were next imaged in a cuvette on a light sheet microscope where they would be recorded within a three-dimensional space and not impeded by surfaces. […]

[6] = system: Aer01; assay: Biofilm assay (crystal violet); assay type: cell-based, Aeromonas veronii; conditions: WT Aer01, 1 mM ligand, 48 hrs
Experimental: Biofilm Assay. […] To the wells of a sterile 96-well plate (Corning, flat-bottom, #3595), 150 μL of each resuspended culture was added, in triplicate. A blank control well was added for each condition using the appropriate uninoculated media. This plate was incubated at 30° C., stationary, for 48 hours. After incubation, the biofilms were quantified using a standard crystal violet biofilm staining procedure. […] Briefly, the supernatant was removed from each well, then the wells gently rinsed three times with 150 μL sterile EM. Then, 150 μL 0.1% crystal violet was added to each well and the plate was incubated at room temperature for 10 minutes, followed by five rinses with 150 μL sterile EM. To destain, 150 μL 95% ethanol was added to each well and the plate was incubated at room temperature for 10 minutes. Each well was mixed well and the contents transferred to a clean 96-well plate and the absorbance (570 nm) was read on a FLUOstar Omega microplate reader (BMG Labtech, Offenburg, Germany).

[7] = system: Aer01 colonization of larval zebrafish gut; assay: Bacterial competitions in vivo (competitive index); conditions: GF zebrafish
Experimental: Bacterial competitions in vivo. For in vivo bacterial competitions, strains (purified evolved isolates, or Aer01 genetic variants) were grown overnight in TSB from freezer stocks. 1 ml of the overnight cultures were pelleted (8,700 rcf, 2 min), then resuspended in 1 ml sterile EM. Competing strains were mixed, then added to flasks of 4 dpf GF (or CV fish) WT fish at ˜10^6 CFU/ml. For all competitions, sfGFP-tagged Aer01 was used as the “reference” strain. […] At 7 dpf, fish intestines were dissected as described above, and each intestine transferred into a 1.6 ml tube containing 500 μl sterile EM and ˜100 μl bullet beads, then bullet blended as described above. Homogenized samples were diluted appropriately in sterile EM, spread plated on TSA plates, incubated at 30° C. for 1-2 days, and the colonies counted. Strains were differentiated by fluorescence microscopy. Competitive index (CI) was calculated by dividing the strain ratio (test strain divided by reference strain) in the gut at the end of the competition by the strain ratio in the inoculum ((test/reference)gut/(test/reference)inoculum) (FIG. 1). The limit of detection is 5 CFU/gut; for samples were one strain was below the limit of detection, the abundance was set to 5 CFU in order to calculate a CI; this was the case for few of the samples.
To test whether WT motility, and therefore immigration into the host, could be increased with addition of ligands, competitions were performed as previously described, this time supplementing the inoculum and flask medium with SpdE ligand.

[8] = SpdE-NarQ chimeric sensor β-galactosidase reporter; assay type: cell-based, Escherichia coli; conditions: expected from sensitivity of SpdE-dependent responses
Source text: SpdE tandem PAS/dCache is a sensitive and specific sensor of particular amino acids. This domain is utilized for the design of novel biosensors of amino acid ligands by engineering chimeric reporter proteins fusing them to the signaling domain of an Escherichia coli protein, NarQ. NarQ is a nitrate/nitrite sensor which contains a C-terminal histidine kinase signaling domain. Here, the SpdE-NarQ hybrid protein includes the tandem PAS/dCache sensing domain (proximal and distal PAS/Cache domains) and both transmembrane domains of SpdE, and the HAMP and histidine kinase signaling domain of NarQ (FIG. 21A). When activated, the NarQ signaling domain auto-phosphorylates, then transfers the phosphoryl group to NarL, a transcriptional activator that binds nitrate-responsive promotors such as narG. In this system LacZ, a β-galactosidase, is under the control of the narG promoter, therefore activation of NarL results in expression of LacZ and increased β-galactosidase activity. The β-galactosidase activity is quantified via a colorimetric assay. Based on the sensitivity of SpdE-dependent responses in the assays disclosed herein, this hybrid protein is expected to detect ligand concentrations of 10 μM or less. […] Therefore, β-galactosidase activity will decrease with increasing ligand concentrations (e.g., FIG. 21B).

[9] = Thermofluor assay with Aer01 SpdE single residue variants; assay type: binding, Aeromonas veronii; conditions: single residue change versus wild-type Aer01 SpdE PAS/dCache
Experimental: as §1, with “binding. […]” for “binding.”

NCC(=O)O [Glycine, glycine]
thermal shift (ΔTm) in words [1]: negative amino acid control
intracellular c-di-GMP [2]: no change

C[C@H](N)C(=O)O [alanine]
thermal shift (ΔTm) in words [1]: smaller degree

CC[C@H](C)[C@H](N)C(=O)O [isoleucine]
thermal shift (ΔTm) in words [1]: largest shifts

CC(C)C[C@H](N)C(=O)O [leucine]
thermal shift (ΔTm) in words [1]: smaller degree

CSCC[C@H](N)C(=O)O [methionine]
thermal shift (ΔTm) in words [1]: smaller degree

O=C(O)[C@@H]1CCCN1 [proline]
ΔTm (difference between test Tm and water control Tm) [1]: ~20 degrees
thermal shift (ΔTm) in words [1]: largest shifts
intracellular c-di-GMP [2]: significantly lower
motility response in exploration assay ([3]; WT Aer01, 100 nM proline): a response was measured
exploration response ([3]; WT Aer01, 1 mM ligand versus WT without ligand, mean): 28.9 min
exploration response across proline concentrations ([3]; WT Aer01, between 100 nM and 1 mM proline): dose-dependent response trend
motility [4]: little increase
number of motile cells [4]: striking increase
cellular velocity (average of median values) ([5]; WT Aer01, 1 mM proline (12.6 μm/sec without ligand)): 24.5 μm/sec
cellular velocity change ([5]; ΔspdE, 1 mM proline): did not increase
biofilm formation [6]: more robust biofilms in the absence of ligand
CI of ΔspdE versus WT ([7]; 100 nM and 10 nM proline): reduced CI but to a much lesser extent
median CI (competitive index) of ΔspdE versus WT ([7]; ligand supplemented into inoculum and flask medium (1 mM proline)): 2

C[C@@H](O)[C@H](N)C(=O)O [threonine]
thermal shift (ΔTm) in words [1]: smaller degree

B1: SpdE-NarQ hybrid protein: SpdE tandem PAS/dCache and transmembrane domains fused to HAMP and histidine kinase signaling domain of E. coli NarQ (protein)
chain: MSPAKPKNTWSLITRMRLGFLLLFIPVLLLGSIYYLHMERTLRHEQQQYLIARNTQYFHTLIEPYLATLKRQFTLIYQQVNYRDFSGPEIRNGERYLQQWQAYHKVMELDYVYVGTEHRKMLIHPSWQADEKFDPRTRPWYLLAASHPGQIVWTDPYYDYTLGTLTMALARVIKDPDGKRVGVLSLDTQLTPLASWLNSRHAQSHHLGNGYQLLLNHDGLVLAHPDRERVFKPLAHPDWLARMQQPQGFFLDDASGLMVSYYRIPEQRWILLSVEPTASMQQVIDSVSINVQLMIAVACFFYLLLALLWLNQLVTASQRIEHGQFDSPPLDTNLPNELGLLAKTFNQMSSELHKLYRSLEASVEEKTRDLHEAKRRLEVLYQCSQALNTSQIDVHCFRHILQIVRDNEAAEYLELNVGENWRISEGQPNPELPMQILPVTMQETVYGELHWQNSHVSSSEPLLNSVSSMLGRGLYFNQAQKHFQQLLLMEERATIARELHDSLAQVLSYLRIQLTLLKRSIPEDNATAQSIMADFSQALNDAYRQLRELLTTFRLTLQQADLPSALREMLDTLQNQTSAKLTLDCRLPTLALDAQMQVHLLQIIREAVLNAMKHANASEIAVSCVTAPDGNHTVYIRDNGIGIGEPKEPEGHYGLNIMRERAERLGGTLTFSQPSGGGTLVSISFRSAEGEESQLM
modifications: SpdE-NarQ fusion protein
detectable ligand concentration [8]: ≤ 10 µM

B2: W140/146A: Aer01 SpdE PAS/dCache variant, single residue change in the distal PAS/Cache (protein, listed as Aeromonas veronii)
chain: MSPAKPKNTWSLITRMRLGFLLLFIPVLLLGSIYYLHMERTLRHEQQQYLIARNTQYFHTLIEPYLATLKRQFTLIYQQVNYRDFSGPEIRNGERYLQQWQAYHKVMELDYVYVGTEHRKMLIHPSWQADEKFDPRTRPAYLLAASHPGQIVWTDPYYDYTLGTLTMALARVIKDPDGKRVGVLSLDTQLTPLASWLNSRHAQSHHLGNGYQLLLNHDGLVLAHPDRERVFKPLAHPDWLARMQQPQGFFLDDASGLMVSYYRIPEQRWILLSVEPTASMQQVIDSVSINVQLMIAVACFFYLLLALLWARYFRRMLGEITLLIRTSRSGGTAYHGSRMLELAKVYEEMDAASQDFAQIRQQANQDKLTGLYNRRFFDECLQKQLNSGAPFGVVMFDLDDFKRVNDTHGHQAGDVVLKRVSKLGMNLFHEWGWFCRYGGEELVLIFRYGEEQPMLPSLLEAFRLGVEQLEWREPDLTITISGGVAFSRSGLSAKELVELADKGVYQAKREGKNRICFPLRHTPHQSAEEGVPAFGETQQQTNEG
ligand binding (thermal shift) [9]: reduction in ligand binding

B3: Y157/163A: Aer01 SpdE PAS/dCache variant, single residue change in the distal PAS/Cache (protein, listed as Aeromonas veronii)
chain: MSPAKPKNTWSLITRMRLGFLLLFIPVLLLGSIYYLHMERTLRHEQQQYLIARNTQYFHTLIEPYLATLKRQFTLIYQQVNYRDFSGPEIRNGERYLQQWQAYHKVMELDYVYVGTEHRKMLIHPSWQADEKFDPRTRPWYLLAASHPGQIVWTDPAYDYTLGTLTMALARVIKDPDGKRVGVLSLDTQLTPLASWLNSRHAQSHHLGNGYQLLLNHDGLVLAHPDRERVFKPLAHPDWLARMQQPQGFFLDDASGLMVSYYRIPEQRWILLSVEPTASMQQVIDSVSINVQLMIAVACFFYLLLALLWARYFRRMLGEITLLIRTSRSGGTAYHGSRMLELAKVYEEMDAASQDFAQIRQQANQDKLTGLYNRRFFDECLQKQLNSGAPFGVVMFDLDDFKRVNDTHGHQAGDVVLKRVSKLGMNLFHEWGWFCRYGGEELVLIFRYGEEQPMLPSLLEAFRLGVEQLEWREPDLTITISGGVAFSRSGLSAKELVELADKGVYQAKREGKNRICFPLRHTPHQSAEEGVPAFGETQQQTNEG
ligand binding (thermal shift) [9]: reduction in ligand binding
